In US6433188B1, “Fused heteroaromatic glucokinase activators” (priority 2000, dated 2002):

Structure (SMILES) | melting point [°C]
O=C(Nc1nc2c(s1)CCCC2)C(CC1CCCC1)c1ccc(Cl)c(Cl)c1 (stereo not drawn) [Example 1, 3-Cyclopentyl-2-(3,4-dichloro-phenyl)-N-(4,5,6,7-tetrahydro-benzothiazol-2-yl)-propionamide] | 170 to 171
O=C(Nc1nc2ccccc2s1)C(CC1CCCC1)c1ccc(Cl)c(Cl)c1 (stereo not drawn) [Example 2, N-Benzothiazol-2-yl-3-cyclopentyl-2-(3,4-dichloro-phenyl)-propionamide] | 104 to 105
O=C(Nc1nc2ccc(F)cc2s1)C(CC1CCCC1)c1ccc(Cl)c(Cl)c1 (stereo not drawn) [Example 4, 3-Cyclopentyl-2-(3,4-dichloro-phenyl)-N-(6-fluoro-benzothiazol-2-yl)-propionamide] | 131 to 133
O=C(Nc1nc2ccccc2[nH]1)C(CC1CCCC1)c1ccc(Cl)c(Cl)c1 (stereo not drawn) [Example 8, N-(1H-Benzimidazol-2-yl)-3-cyclopentyl-2-(3,4-dichloro-phenyl)-propionamide] | 193.4 to 196.8
O=C(Nc1ccc2ccccc2n1)C(CC1CCCC1)c1ccc(Cl)c(Cl)c1 (stereo not drawn) [Example 10, 3-Cyclopentyl-2-(3,4-dichloro-phenyl)-N-quinolin-2-yl-propionamide] | 172 to 173
CS(=O)(=O)c1ccc(C(CC2CCCC2)C(=O)Nc2nc3ccccc3s2)cc1 (stereo not drawn) [Example 12(A), N-Benzothiazol-2-yl-3-cyclopentyl-2-(4-methanesulfonyl-phenyl)-propionamide] | 206 to 209
CS(=O)(=O)c1ccc([C@@H](CC2CCCC2)C(=O)Nc2nc3ccccc3[nH]2)cc1 [Example 13, N-(1H-Benzimidazol-2-yl)-3-cyclopentyl-2(R)-(4-methanesulfonyl-phenyl)-propionamide] | 230 to 232
CS(=O)(=O)c1ccc([C@@H](CC2CCCC2)C(=O)Nc2nc3ccccc3s2)cc1 [Example 14, N-Benzothiazol-2-yl-3-cyclopentyl-2(R)-(4-methanesulfonyl-phenyl)-propionamide] | 100 to 105
CS(=O)(=O)c1ccc([C@@H](CC2CCCC2)C(=O)Nc2nc3ccccc3[nH]2)cc1Cl [Example 21, N-(1H-Benzimidazol-2-yl)-2(R)-(3-chloro-4-methanesulfonyl-phenyl)-3-cyclopentyl-propionamide] | > 215
CS(=O)(=O)c1ccc(C(CC2CCCC2)C(=O)Nc2nc3ccccc3[nH]2)cc1Br (stereo not drawn) [Example 24(A), N-(1H-Benzimidazol-2-yl)-2-(3-bromo-4-methanesulfonyl-phenyl)-3-cyclopentyl-propionamide] | > 220
CS(=O)(=O)c1ccc(C(CC2CCCC2)C(=O)Nc2ccc3ccccc3n2)cc1Br (stereo not drawn) [Example 25, 2-(3-Bromo-4-methanesulfonyl-phenyl)-3-cyclopentyl-N-quinolin-2-yl-propionamide] | 95 to 100
CS(=O)(=O)c1ccc(C(CC2CCCC2)C(=O)Nc2nc3ccccc3s2)cc1C#N (stereo not drawn) [Example 26, N-Benzothiazol-2-yl-2-(3-cyano-4-methanesulfonyl-phenyl)-3-cyclopentyl-propionamide] | 115 to 118
CS(=O)(=O)c1ccc(C(CC2CCCC2)C(=O)Nc2nc3ccccc3o2)cc1C#N (stereo not drawn) [Example 27, N-Benzoxazol-2-yl-2-(3-cyano-4-methanesulfonyl-phenyl)-3-cyclopentyl-propionamide] | 108 to 112
CS(=O)(=O)c1ccc(C(CC2CCCC2)C(=O)Nc2nc3ccccc3[nH]2)cc1C#N (stereo not drawn) [Example 28, N-(1H-Benzimidazol-2-yl)-2-(3-cyano-4-methanesulfonyl-phenyl)-3-cyclopentyl-propionamide] | 148 to 152
CS(=O)(=O)c1ccc(C(CC2CCCC2)C(=O)Nc2ccc3ccccc3n2)cc1C#N (stereo not drawn) [Example 29, 2-(3-Cyano-4-methanesulfonyl-phenyl)-3-cyclopentyl-N-quinolin-2-yl-propionamide] | 95 to 99
CS(=O)(=O)c1ccc(C(CC2CCCC2)C(=O)Nc2ccc3ccccc3n2)cc1C(F)(F)F (stereo not drawn) [Example 30, 3-Cyclopentyl-2-(4-methanesulfonyl-3-trifluoromethyl-phenyl)-N-quinolin-2-yl-propionamide] | 90 to 95
CS(=O)(=O)c1ccc(C(CC2CCCC2)C(=O)Nc2nc3ccccc3s2)cc1C(F)(F)F (stereo not drawn) [Example 31(A), N-Benzothiazol-2-yl-3-cyclopentyl-2-(4-methanesulfonyl-3-trifluoromethyl-phenyl)-propionamide] | 105 to 110
CS(=O)(=O)c1ccc(C(CC2CCCC2)C(=O)Nc2nc3ccccc3s2)cc1[N+](=O)[O-] (stereo not drawn) [Example 32, N-Benzothiazol-2-yl-3-cyclopentyl-2-(4-methanesulfonyl-3-nitro-phenyl)-propionamide] | 108 to 113
CS(=O)(=O)c1ccc(C(CC2CCCC2)C(=O)Nc2nc3ccccc3o2)cc1[N+](=O)[O-] (stereo not drawn) [Example 33, N-Benzoxazol-2-yl-3-cyclopentyl-2-(4-methanesulfonyl-3-nitro-phenyl)-propionamide] | 106 to 111
CS(=O)(=O)c1ccc(C(CC2CCCC2)C(=O)Nc2nc3ccccc3[nH]2)cc1[N+](=O)[O-] (stereo not drawn) [Example 34, N-(1H-Benzimidazol-2-yl)-3-cyclopentyl-2-(4-methanesulfonyl-3-nitro-phenyl)-propionamide] | 113 to 117
CS(=O)(=O)c1ccc(C(CC2CCCC2)C(=O)Nc2ccc3ccccc3n2)cc1[N+](=O)[O-] (stereo not drawn) [Example 35, 3-Cyclopentyl-2-(4-methanesulfonyl-3-nitro-phenyl)-N-quinolin-2-yl-propionamide] | 102 to 106
